From paper PMC8876616, “Drug Design, Synthesis and Biological Evaluation of Heterocyclic Molecules as Anti-Inflammatory Agents” (Molecules, 2022)
Several values for one entry are separate records, joined by “and”; a condition that tells them apart may be missing. Equal entries are not always repeated. Entries after “also recorded” stand apart in the source; their conditions may differ.

How the values were obtained:
human recombinant COX-2 = molecular target: T1, human recombinant COX-2 (Homo sapiens, UniProt P35354); test: In vitro COX-2 colorimetric enzyme assay (Cayman kit, TMPD at 590 nm); type: biochemical; details: for Selectivity (ratio of IC50 for COX-1 to COX-2): IC50 COX-1 divided by IC50 COX-2; for IC50: human recombinant COX-2; for COX-2 selectivity, in words: selectivity ratio compared with indomethacin / other derivatives; for COX-2 inhibition, in words: compared with indomethacin / other derivatives
T1 construct: purchased Cayman Chemicals, Ann Arbor, MI, USA
T1 sequence (P35354 18-604): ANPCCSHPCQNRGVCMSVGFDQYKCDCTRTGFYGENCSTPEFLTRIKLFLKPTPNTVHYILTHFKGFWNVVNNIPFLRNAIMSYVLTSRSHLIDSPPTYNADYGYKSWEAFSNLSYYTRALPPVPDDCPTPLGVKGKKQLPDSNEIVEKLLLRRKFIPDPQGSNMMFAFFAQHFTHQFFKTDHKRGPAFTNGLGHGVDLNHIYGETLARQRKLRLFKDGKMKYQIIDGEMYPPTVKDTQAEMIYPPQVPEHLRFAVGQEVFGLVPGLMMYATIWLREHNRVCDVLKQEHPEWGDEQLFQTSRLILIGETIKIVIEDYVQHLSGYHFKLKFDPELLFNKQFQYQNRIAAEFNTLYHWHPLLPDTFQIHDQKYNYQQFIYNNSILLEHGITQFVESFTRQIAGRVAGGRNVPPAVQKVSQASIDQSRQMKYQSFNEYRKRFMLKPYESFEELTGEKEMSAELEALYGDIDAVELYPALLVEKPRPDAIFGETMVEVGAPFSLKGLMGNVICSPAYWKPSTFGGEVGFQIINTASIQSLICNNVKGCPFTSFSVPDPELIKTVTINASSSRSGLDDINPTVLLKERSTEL
Method: (§1) The assay procedure was followed as per the manufacturer’s protocol with slight modifications. The screening kits consolidate ovine COX-1 as well as human recombinant COX-2 compounds to screen isozyme-specific inhibitors. The test investigates the peroxidase activity by projecting the presence of oxidized TMPD (N, N, N′, N′- tetramethyl-p-phenylenediamine) at 590 nm. The COX-2 selectivity was measured as a ratio of IC50 for COX-1 divided by COX-2 [15].

ovine COX-1 = molecular target: T2, ovine COX-1 (Ovis aries, UniProt P05979); test: In vitro COX-1 colorimetric enzyme assay (Cayman kit, TMPD at 590 nm); type: biochemical
T2 construct: purchased Cayman Chemicals, Ann Arbor, MI, USA
T2 sequence (P05979 25-600): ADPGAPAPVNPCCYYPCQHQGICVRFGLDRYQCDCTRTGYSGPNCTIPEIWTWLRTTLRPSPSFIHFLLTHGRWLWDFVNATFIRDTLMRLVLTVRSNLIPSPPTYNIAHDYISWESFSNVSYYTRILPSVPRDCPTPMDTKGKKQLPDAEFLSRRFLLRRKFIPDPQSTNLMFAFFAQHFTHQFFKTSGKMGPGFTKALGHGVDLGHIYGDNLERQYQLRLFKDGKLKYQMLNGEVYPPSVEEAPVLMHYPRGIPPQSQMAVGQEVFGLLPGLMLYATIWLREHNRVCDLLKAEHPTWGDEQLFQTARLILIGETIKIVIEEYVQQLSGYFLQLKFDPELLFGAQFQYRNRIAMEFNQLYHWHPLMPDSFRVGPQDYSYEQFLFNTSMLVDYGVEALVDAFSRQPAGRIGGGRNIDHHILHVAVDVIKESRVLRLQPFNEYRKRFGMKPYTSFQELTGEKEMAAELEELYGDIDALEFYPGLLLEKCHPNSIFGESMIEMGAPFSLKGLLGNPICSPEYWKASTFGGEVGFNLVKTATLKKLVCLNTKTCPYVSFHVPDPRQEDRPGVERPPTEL
Method: as §1

[1] = tested on: carrageenan-induced paw oedema; test: Carrageenan-induced rat paw oedema; type: in vivo, Wistar rats; details: 2.57 mg/kg oral, 1 h before carrageenan; paw volume after 5 h
Method: All the procedures performed followed the Committee for Control and Supervision of Experiments on Animals (CPCSEA), the Ministry of Social Justice and Empowerment, the Government of India. The in vivo study was performed using Wistar rats (250-300 gm body weight) obtained from the Torrent Research Center, […]. Animals were divided into five groups containing six rats per group and housed under controlled conditions. The temperature and relative humidity of the animal house were kept at 23 ± 2 °C and 55 ± 5%, respectively. Animals were kept under a photo schedule of 12 h light and 12 h dark cycle and given access to food and purified water ad libitum. […] A freshly prepared carrageenan solution (1%w/v, 0.1 mL) was injected into the plantar side of each rat's right hind paw. […] The paw volume was measured using a plethysmometer using the mercury displacement method after 5 h of carrageenan injection.

gastric mucosa = test: Effect on the gastric mucosa (ulcerogenic effect); type: in vivo, Wistar rats; details: 2.57 mg/kg oral, six hours after administration, rats
Method: GI side effects were assessed six hours after an oral administration in each group. Animals were euthanized, and stomachs were expelled, opened along the more prominent bend and washed with saline to remove gastric contents. Each stomach was analysed by another researcher, blinded to the treatment groups. The stomach was visually examined for the presence of any lesions, hyperaemia (red tinge) or haemorrhagic spots for evaluation of the presence of ulceration.

Row | Structure (SMILES) | Selectivity (ratio of IC50 for COX-1 to COX-2) (human recombinant COX-2) | IC50 (human recombinant COX-2) | COX-2 selectivity, in words (human recombinant COX-2) | IC50 (ovine COX-1) | Anti-inflammatory activity (inhibition of paw oedema), in words [1] | COX-2 inhibition, in words (human recombinant COX-2) | Ulcerogenic effect (visual examination of stomach), in words (gastric mucosa)
1 | COc1ccc2c(c1)c(CC(=O)Nc1ccc(F)c(Cl)c1)c(C)n2C(=O)c1ccc(Cl)cc1 [Compound 3c, N-(3-chloro-4-fluorophenyl)-2-(1-(4-chlorobenzoyl)-5-methoxy-2-methyl-1H-indol-3-yl)acetamide] | 0.76 | 1.39 ± 0.32 µM | less than indomethacin | 1.06 ± 0.1 µM | comparable anti-inflammatory activity with the standard |  | 
2 | COc1ccc2c(c1)c(CC(=O)Nc1ccccc1Cl)c(C)n2C(=O)c1ccc(Cl)cc1 [Compound 3b, 2-(1-(4-chlorobenzoyl),5-methoxy-2-methyl-1H-indol-3-yl)-N-(2-chlorophenyl)acetamide] | 1.41 | 3.28 ± 0.16 µM |  | 4.61 ± 0.31 µM |  |  | 
3 | COc1ccc2c(c1)c(CC(=O)Nc1ccccc1)c(C)n2C(=O)c1ccc(Cl)cc1 [Compound 3a, 2-(1(4-chlorobenzoyl),5-methoxy-2-methyl-1H-indol-3-yl)-N-phenylacetamide] | 2.04 | 2.97 ± 0.11 µM |  | 6.04 ± 0.14 µM |  |  | 
4 | COc1ccc2c(c1)c(CC(=O)Nc1ccc(F)cc1)c(C)n2C(=O)c1ccc(Cl)cc1 [Compound 3d, 2-(1-(4-chlorobenzoyl)-5-methoxy-2-methyl-1H-indol-3-yl)-N-(4-fluorophenyl)acetamide] |  |  |  | 5 ± 0.47 µM |  |  | 
5 | COc1ccc2c(c1)c(CC(=O)Nc1c(Cl)cccc1Cl)c(C)n2C(=O)c1ccc(Cl)cc1 [Compound 3g, 2-(1-(4-chlorobenzoyl)-5-methoxy-2-methyl-1H-indol-3-yl)-N-(2,6-dichlorophenyl)acetamide] | 1.42 | 2.91 ± 0.38 µM |  | 4.14 ± 0.25 µM |  |  | 
6 | COc1ccc2c(c1)c(CC(=O)Nc1ccc([N+](=O)[O-])cc1)c(C)n2C(=O)c1ccc(Cl)cc1 [Compound 3e, 2-(1-(4-chlorobenzoyl)-5-methoxy-2-methyl-1H-indol-3-yl)-N-(4-nitrophenyl)acetamide] | 3.32 | 0.344 µM and 0.34 µM | highest selectivity ratio; also recorded: excellent selectivity ratio as compared with the standard | 1.15 ± 0.3 µM | comparable anti-inflammatory activity with the standard | comparable COX-2 inhibition potential to indomethacin; also recorded: particularly significant activity against the COX-2 enzyme | devoid of GI side effects such as ulceration
7 | COc1ccc2c(c1)c(CC(=O)O)c(C)n2C(=O)c1ccc(Cl)cc1 [Indomethacin, 2-(1-(4-chlorobenzoyl)-5-methoxy-2-methyl-1-H-indol-3-yl)acetic acid] |  |  |  |  | significant inhibition of oedema formation |  | small lesions and red colouration; also recorded: small lesions and ulcers
8 | COc1ccc2c(c1)c(CC(=O)Nc1cccc(C)c1)c(C)n2C(=O)c1ccc(Cl)cc1 [Compound 3i, 2-(1-(4-chlorobenzoyl)-5-methoxy-2-methyl-1H-indol-3-yl)-N-m-tolylacetamide] | 1.12 | 4.22 ± 0.23 µM |  | 4.71 ± 0.22 µM |  | low inhibitory action against COX-2 | 
9 | COc1ccc2c(c1)c(CC(=O)NCc1ccccc1)c(C)n2C(=O)c1ccc(Cl)cc1 [Compound 3h, N-benzyl-2-(1-(4-chlorobenzoyl)-5-methoxy-2-methyl-1H-indol-3-yl)acetamide] | 1.06 | 4.73 ± 0.15 µM |  | 4.99 ± 0.11 µM |  | low inhibitory action against COX-2 | 
